Molecules are shown by their SMILES.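 48-hour exposure; five concentrations; linearly interpolated endpoints. At the TGI there is no net growth.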 A value given as a limit tells only on which side of the number the result lay.

Some test systems named below: MALME-3M melanoma; MDA-MB-435; OVCAR-3 ovarian; BT-549 breast; U251 CNS; A549 NSCLC; CAKI-1 renal; HT29 colon; SN12C renal; SK-MEL-2 melanoma; IGROV1 ovarian.
Holding throughout (assay): NCI anticancer screen, dose series, 48 h

For the compound `CN(/N=C/c1ccccc1C(=O)O)C1=NCCCCN1`, the TGI in the assay on MALME-3M melanoma, in the assay with MDA-MB-435, with OVCAR-3 ovarian, with BT-549 breast, in the assay with U251 CNS and in the assay on A549 NSCLC was more than 100 µM throughout. The TGI in the assay with CAKI-1 renal, in the assay on HT29 colon, in the assay with SN12C renal, in the assay with SK-MEL-2 melanoma and in the assay on IGROV1 ovarian was more than 100 µM in each case.

In the case of `COc1cc2c3cc1Oc1c(OC)c(OC)cc4c1C(Cc1ccc(O)c(c1)-c1cc(ccc1OC)CC3N(C)CC2)N(C)CC4` (stereo unspecified), the TGI with MALME-3M melanoma is 41.4 µM; in the assay with MDA-MB-435, 61.5 µM; with OVCAR-3 ovarian, more than 100 µM; in the assay with BT-549 breast, 51.1 µM; in the assay with U251 CNS, more than 100 µM; in the assay on A549 NSCLC, more than 100 µM. Moreover, the TGI amounted to 59.6 µM in the assay with CAKI-1 renal; 50.4 µM with HT29 colon; 42.7 µM with SN12C renal; 43 µM in the assay on SK-MEL-2 melanoma; 63.7 µM with IGROV1 ovarian.

Consider `CNC(=O)OCC1=C(COC(=O)NC)C(C)N(c2ccccc2)C1` (stereo unspecified), for which the TGI in the assay on MALME-3M melanoma is 97.4 µM; in the assay on MDA-MB-435, 96.4 µM; with OVCAR-3 ovarian it was 92.7 µM; in the assay on BT-549 breast it was more than 100 µM; in the assay with U251 CNS, more than 100 µM; in the assay on A549 NSCLC, more than 100 µM. Further, the TGI in the assay with HT29 colon was 53.7 µM; in the assay with SN12C renal it was more than 100 µM; in the assay on SK-MEL-2 melanoma, 70.6 µM; with IGROV1 ovarian, 98.4 µM.

Consider `Clc1nc(Nc2nc3ccccc3[nH]2)nc(Cl)c1-c1ccccc1`, for which the TGI with MALME-3M melanoma is 38.6 µM; in the assay with MDA-MB-435, more than 100 µM; in the assay on BT-549 breast, 42.5 µM; with U251 CNS it was 32.7 µM; with A549 NSCLC, more than 100 µM; with CAKI-1 renal it was more than 100 µM. Also, the TGI in the assay on HT29 colon was 34.9 µM; in the assay with SN12C renal, 31.1 µM; in the assay with SK-MEL-2 melanoma, 55.9 µM; in the assay on IGROV1 ovarian it was 54.2 µM.

For `COc1cc(C2SCC(=O)N2NC(=O)c2ccc(NC(C)=O)cc2OC)ccc1O` (stereo unspecified), the TGI in the assay with MALME-3M melanoma, in the assay with MDA-MB-435, with OVCAR-3 ovarian, with BT-549 breast, in the assay with A549 NSCLC and in the assay on CAKI-1 renal was more than 100 µM in each case. In addition, the TGI in the assay on HT29 colon is more than 100 µM; with SN12C renal it was 79.8 µM; in the assay with SK-MEL-2 melanoma, 68.6 µM; in the assay with IGROV1 ovarian, more than 100 µM.

For the compound `Brc1ccc(C2CC3(c4ccccc4)ON=C(c4ccccc4)N3c3ccccc3S2)cc1` (stereo unspecified), the TGI in the assay on MALME-3M melanoma, in the assay with MDA-MB-435, in the assay with OVCAR-3 ovarian, in the assay with BT-549 breast, in the assay on U251 CNS and in the assay on A549 NSCLC was more than 100 µM in each case. Besides, the TGI in the assay on HT29 colon, in the assay on SN12C renal, in the assay on SK-MEL-2 melanoma and in the assay on IGROV1 ovarian was more than 100 µM in each case.

On to `O=c1oc2ccccc2n1CCCn1c(=O)oc2ccccc21`, for which the TGI in the assay on MALME-3M melanoma, in the assay on MDA-MB-435, in the assay on OVCAR-3 ovarian, with BT-549 breast, with U251 CNS and in the assay on CAKI-1 renal was more than 100 µM each time. Besides, the TGI with HT29 colon, with SN12C renal, in the assay on SK-MEL-2 melanoma and in the assay with IGROV1 ovarian was more than 100 µM each time.

Consider `C(#C[C@@]12CCC[C@@H]1N(Cc1ccccc1)CO2)c1ccc2c(c1)OCO2`, for which the TGI with MALME-3M melanoma, in the assay with MDA-MB-435, in the assay on OVCAR-3 ovarian, in the assay on BT-549 breast, with U251 CNS and with A549 NSCLC was more than 100 µM in each case. The TGI in the assay with CAKI-1 renal, in the assay with HT29 colon, in the assay with SN12C renal and in the assay with SK-MEL-2 melanoma was more than 100 µM in each case.

Take `NS(=O)(=O)c1nnc(NC(=O)/C=C/C(=O)O)s1`: the TGI with MALME-3M melanoma, in the assay on MDA-MB-435, in the assay on OVCAR-3 ovarian, in the assay on BT-549 breast, with U251 CNS and in the assay on A549 NSCLC was more than 100 µM each time. The TGI with CAKI-1 renal, in the assay with HT29 colon, in the assay with SN12C renal and with SK-MEL-2 melanoma was more than 100 µM throughout.

On to `COc1ccc(C(=O)N(Cc2cccnc2)C(=S)N(Cc2cccnc2)C(=O)c2ccc(OC)cc2)cc1`, for which the TGI with MALME-3M melanoma, in the assay on MDA-MB-435, with OVCAR-3 ovarian, in the assay with BT-549 breast, in the assay on U251 CNS and in the assay on A549 NSCLC was more than 100 µM each time. Also, the TGI in the assay with CAKI-1 renal, in the assay on HT29 colon, in the assay with SN12C renal and in the assay on SK-MEL-2 melanoma was more than 100 µM in each case.

`O=C1CSC(c2cccc(Oc3ccccc3)c2)N1c1cccc(Cl)c1Cl` (stereo unspecified): the TGI was 82.9 µM with MALME-3M melanoma; 56.1 µM in the assay with MDA-MB-435; more than 100 µM in the assay with OVCAR-3 ovarian; 50.4 µM in the assay with BT-549 breast; 39.1 µM in the assay with U251 CNS; more than 100 µM with A549 NSCLC. Also, the TGI with CAKI-1 renal is more than 100 µM; with HT29 colon, 63.1 µM; in the assay with SN12C renal, more than 100 µM; with SK-MEL-2 melanoma, 34.9 µM.

With `COC(=O)[C@]1(Cc2ccc3ccccc3c2)CCCCCCN1C(=O)c1ccccc1`, the TGI was more than 53.2 µM in the assay on MALME-3M melanoma; more than 53.1 µM in the assay with MDA-MB-435; more than 43.5 µM in the assay on OVCAR-3 ovarian; more than 54 µM with BT-549 breast; more than 46.1 µM with U251 CNS; more than 100 µM in the assay on A549 NSCLC. Also, the TGI with HT29 colon is more than 45.2 µM; in the assay on SN12C renal it was more than 51.5 µM; in the assay with SK-MEL-2 melanoma, 25.9 µM; with IGROV1 ovarian, more than 58.2 µM.

Regarding `C/C(=N\Nc1nc2ccccc2o1)c1cc2ccccc2cn1`, the TGI in the assay on MALME-3M melanoma is 5.51 µM; in the assay with MDA-MB-435, more than 43.4 µM; with OVCAR-3 ovarian, 13.2 µM; with BT-549 breast, 3.23 µM; with U251 CNS it was more than 100 µM; with A549 NSCLC, 9.46 µM. For the same compound, the TGI in the assay on CAKI-1 renal is 11.1 µM; with SN12C renal, 33.7 µM; in the assay with SK-MEL-2 melanoma it was 12.2 µM.

On to `Cc1nn(C(=O)c2ccncc2)c2c1C(c1ccc([N+](=O)[O-])cc1)SC(N)=N2` (stereo unspecified), for which the TGI with MALME-3M melanoma, with MDA-MB-435, in the assay on OVCAR-3 ovarian, with BT-549 breast, in the assay on U251 CNS and in the assay with A549 NSCLC was more than 100 µM throughout. For the same compound, the TGI with HT29 colon, in the assay on SN12C renal, with SK-MEL-2 melanoma and in the assay on IGROV1 ovarian was more than 100 µM each time.

In the case of `O=C1/C(=C\c2cccc(Oc3ccccc3)c2)SC(c2ccccc2)N1c1cccc(Cl)c1` (stereo unspecified), the TGI in the assay with MALME-3M melanoma, in the assay on MDA-MB-435, in the assay with OVCAR-3 ovarian, with BT-549 breast, in the assay on U251 CNS and in the assay with A549 NSCLC was more than 100 µM each time. Also, the TGI with CAKI-1 renal, in the assay with HT29 colon, with SN12C renal and in the assay with SK-MEL-2 melanoma was more than 100 µM each time.

As to `CN(C(=O)c1ccc(Cl)cc1)C(=S)N1CCN(c2ccccc2)CC1`, the TGI with MALME-3M melanoma, with MDA-MB-435, with OVCAR-3 ovarian, in the assay with BT-549 breast, in the assay on U251 CNS and with A549 NSCLC was more than 100 µM each time. Further, the TGI with HT29 colon, with SN12C renal, in the assay on SK-MEL-2 melanoma and with IGROV1 ovarian was more than 100 µM throughout.

For `OC1(C2(c3ccc(Cl)cc3)CCCC2)c2ccccc2C2=NCCN21` (stereo unspecified), the TGI turned out to be 34.7 µM in the assay on MALME-3M melanoma; 26.7 µM with MDA-MB-435; 30.9 µM in the assay with OVCAR-3 ovarian; 31.5 µM with BT-549 breast; 28.2 µM in the assay with U251 CNS; 31.3 µM in the assay with A549 NSCLC. Also, the TGI in the assay on CAKI-1 renal came to 28.9 µM; in the assay on HT29 colon, 23.5 µM; in the assay on SN12C renal, 31.5 µM; in the assay on IGROV1 ovarian it was 26.8 µM.

Regarding `C=CCN(c1cc(OC)c2c(c1[N+](=O)[O-])C(C)(SC)C(=O)N2)S(C)(=O)=O` (stereo unspecified), the TGI with MALME-3M melanoma, with MDA-MB-435, with BT-549 breast, in the assay with U251 CNS, with A549 NSCLC and in the assay on CAKI-1 renal was more than 100 µM each time. Also, the TGI in the assay with HT29 colon, with SN12C renal, in the assay with SK-MEL-2 melanoma and with IGROV1 ovarian was more than 100 µM throughout.

Turning to `O=C1CN(c2ccccc2)C(=O)CN1CCN1CC(=O)N(c2ccccc2)CC1=O`, the TGI in the assay on MALME-3M melanoma, with MDA-MB-435, in the assay with OVCAR-3 ovarian, in the assay on BT-549 breast, in the assay on U251 CNS and with A549 NSCLC was more than 100 µM each time. For the same compound, the TGI in the assay on CAKI-1 renal, with HT29 colon, with SN12C renal and in the assay with IGROV1 ovarian was more than 100 µM throughout.

As for `O=C(NNC(=O)c1c(Cl)c(Cl)c(Cl)c(Cl)c1-c1nc2ccccc2[nH]1)c1ccc(Cl)cc1`, the TGI was more than 100 µM with MALME-3M melanoma; 69.8 µM with MDA-MB-435; more than 100 µM in the assay with OVCAR-3 ovarian; more than 100 µM with BT-549 breast; more than 100 µM with A549 NSCLC; more than 100 µM in the assay on CAKI-1 renal. Further, the TGI in the assay on HT29 colon, in the assay on SN12C renal, with SK-MEL-2 melanoma and with IGROV1 ovarian was more than 100 µM throughout.
